Read-outs that look alike come from different tables or passages of the source.
Experiments:
[1] = test system: HL-60 cells; assay: Morphological quantification of apoptosis (acridine orange/ethidium bromide), HL-60; type: cell-based, human; conditions: 5% FCS medium, 24 and 48h
Description: (§1) for determination of apoptosis, cells were harvested (650 g, 7 min) and stained with acridine orange/ethidium bromide at a final concentration of 0.05 mg/ml. This method allows distinguishing between live, necrotic and apoptotic cells (FIG. 11). […] At least 100 cells were counted under a fluorescence microscope and the percentage of affected cells was calculated.

[2] = test system: HL-60 tumor; assay: Mouse xenograft model transplanted with HL-60 cells; type: in vivo; conditions: 5 mg/kg CBD, 10 mg/kg CL, alone and combination, peritumoral; days 7 through 14
Description: NOD/SCID mice were bred and housed at animal facility of Ben-Gurion University of the Negev, Israel. All animals were used between 7-8 weeks old of age. For induction of tumor, mice were irradiated with 2.7 Gy X ray radiation for 2 min. The following 5 hours, mice were injected with 1 million viable HL-60 cells on right flank of mice. Mice were monitored for tumorigenesis. Tumors were measured during 14 days and their volumes (mm^3) were calculated as (d^2XD)/2 (where d is the shortest and D is the longest diameter of the tumor in mm). […] The injection was repeated once a day, 5 days per week, and tumor volumes were checked twice a week until the vehicle died and the remained animals were sacrificed.

[3] = test system: CCRF-CEM cells; assay: Morphological quantification of apoptosis (acridine orange/ethidium bromide), CCRF-CEM; type: cell-based, human; conditions: serum free and 5% FCS medium, 24h
Description: as §1

[4] = test system: HL-60 cells; assay: XTT cell viability, HL-60 cells; type: cell-based, human; conditions: for IC50: Homo sapiens
Description: (§2) human HL-60, myeloblastic leukemia and CCRF-CEM, acute lymphoblastic leukemia cell line were cultured in RPMI-1640 supplemented with 10% (v/v) heat-inactivated fetal calf serum, 2 mM L-glutamine, 100U/ml penicillin and 100 μg/ml streptomycin. MCF-7, breast cancer and A-172, glioblastoma cell lines were cultured in DMEM supplemented with 10% (v/v) heat-inactivated fetal calf serum, 2 mM L-glutamine, 100U/ml penicillin and 100 μg/ml streptomycin. Cultures were maintained at 37° C. in a humidified atmosphere with 5% CO2 and maintained in exponential phase by transfer to fresh medium every 2-3 days. Experiments were conducted in serum free medium and 5% or 10% FCS medium. The trypanblue dye exclusion method was used for cell counting performed using a hemocytometer under light microscope.

[5] = test system: A-172 cells; assay: XTT cell viability, A-172 cells; type: cell-based, human; conditions: cannabidiol at 5 μM or more, 48h
Description: as §2

[6] = test system: MCF-7 cells; assay: XTT cell viability, MCF-7 cells; type: cell-based; conditions: cannabidiol at 5 μM or more, 24h
Description: as §2

[7] = test system: Mcl-1; assay: Western blot of Mcl-1 in CCRF-CEM cells; type: cell-based, human; conditions: 20 μM cannabidiol, by 3h of treatment
Description: Cells washed twice with ice cold PBS and lysed in RIPA buffer (50 mM Tris-HCl, 0.1% NP-40, 1 mM DTT, 0.25M sucrose, 2 mM MgCl2, pH 7.4) for 30 min on ice. After centrifugation, the post-nuclear supernatant containing the cell soluble fraction were loaded on to a 12% SDS-PAGE gel. After electrophoresis, the gels were blotted onto a PVDF membrane (Bio-Rad, Hercules, Calif.), blocked with 5% (w/v) milk for overnight at 4° C. temperature, washed briefly in Tris-Buffered Saline Tween-20 (TBST), and then probed overnight at 4° C. with the anti-mouse human anti-MC1-1 and calreticulin (CRN) primary antibodies. Primary antibody binding was detected with anti-mouse IgG conjugated to horseradish peroxidase (Jackson Immunoresearch, Avondale, Pa.), and made visible by enhanced chemiluminescence (ECL) (Biological Industries, Israel), according to manufacturer's instructions. Antibodies against MCl-1 and calreticulin (CRN) were purchased from Santa Cruz, Calif., USA.

[8] = test system: CCRF-CEM cells; assay: XTT cell viability, CCRF-CEM cells; type: cell-based, human; conditions: cannabidiol at 5 μM or more, 24h
Description: as §2

| Compound | induction of apoptosis [1] | HL-60 tumor growth [2] | induction of apoptosis [3] | effect on cell viability at very low concentration ([4]; 0.2 μM, serum free condition, 24h) | sensitivity of cells to CBD ([4]; 10% FCS medium, 24h) | IC50 ([4]; HL-60, 24 h, read-out: IC50, cell viability) [µM] | IC50 ([4]; HL-60, 48 h, read-out: IC50 value, cell viability) [µM] | number of viable cells ([4]; cannabidiol at 5 μM or more, 24h and 48 h) | number of viable cells [5] | number of viable cells [6] | Mcl-1 expression [7] | number of viable cells [8] |
| --- | --- | --- | --- | --- | --- | --- | --- | --- | --- | --- | --- | --- |
| C=C(C)[C@@H]1CCC(C)=C[C@H]1c1c(O)cc(CCCCC)cc1O [CBD, Cannabidiol] | dose and time dependent induction of apoptosis | significant suppression | dose and time dependent induction of apoptosis | profound effect on reduction of cell viability | less sensitive | 0.26 | 16 | significant reduction in the number of viable cells | significant reduction in the number of viable cells | significant reduction in the number of viable cells | down regulated | significant reduction in the number of viable cells |
| CCN(CC)CCOc1ccc(C(=C(Cl)c2ccccc2)c2ccccc2)cc1 [clomiphene] |  | significant suppression |  |  |  |  |  |  |  |  |  |  |
